“And” between values parts separate entries of the source, which are not always exact repeats. Identical values can stand only once. “Also recorded” adds a separate entry of the source.
What was measured:
hCB2 = hCB2 (Homo sapiens, UniProt P34972); experiment: Radioligand competition binding, HEK293 cells expressing human CB2R; design: expressed in transfected cells; host or cells: HEK293 cells stably expressing human CB2R (Laboratory of Ken Mackie); conditions: hCB2, log[drug], replicate columns
Chain of hCB2 (P34972 whole entry): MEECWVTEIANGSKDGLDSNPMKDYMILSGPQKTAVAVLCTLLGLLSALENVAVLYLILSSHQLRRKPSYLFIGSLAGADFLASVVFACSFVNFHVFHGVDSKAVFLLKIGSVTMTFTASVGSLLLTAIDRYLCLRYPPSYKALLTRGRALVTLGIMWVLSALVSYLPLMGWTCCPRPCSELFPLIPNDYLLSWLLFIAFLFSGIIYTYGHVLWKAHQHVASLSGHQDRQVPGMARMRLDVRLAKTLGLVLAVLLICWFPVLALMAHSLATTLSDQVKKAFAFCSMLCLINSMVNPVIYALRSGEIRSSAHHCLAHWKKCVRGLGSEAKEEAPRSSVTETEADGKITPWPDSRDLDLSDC

mice [1] = experiment: Tail flick, 50 °C water bath; assay type: in vivo, mouse; conditions: for analgesic response normalised to baseline, WT vs CB1R KO (Figure5d), individual animals / Response relative to Baseline, individual animals (FigS11c): 0.2 mg/kg; for Response relative to Baseline, individual animals (FigS11c): test not printed on the sheet
hCB1 = hCB1 (Homo sapiens, UniProt P21554); experiment: Radioligand competition binding at hCB1; design: host or cells: HEK293SL cells, transient PEI transfection; conditions: for radioligand binding, competition curve point (normalized): log[drug]
Chain of hCB1 (P21554 whole entry): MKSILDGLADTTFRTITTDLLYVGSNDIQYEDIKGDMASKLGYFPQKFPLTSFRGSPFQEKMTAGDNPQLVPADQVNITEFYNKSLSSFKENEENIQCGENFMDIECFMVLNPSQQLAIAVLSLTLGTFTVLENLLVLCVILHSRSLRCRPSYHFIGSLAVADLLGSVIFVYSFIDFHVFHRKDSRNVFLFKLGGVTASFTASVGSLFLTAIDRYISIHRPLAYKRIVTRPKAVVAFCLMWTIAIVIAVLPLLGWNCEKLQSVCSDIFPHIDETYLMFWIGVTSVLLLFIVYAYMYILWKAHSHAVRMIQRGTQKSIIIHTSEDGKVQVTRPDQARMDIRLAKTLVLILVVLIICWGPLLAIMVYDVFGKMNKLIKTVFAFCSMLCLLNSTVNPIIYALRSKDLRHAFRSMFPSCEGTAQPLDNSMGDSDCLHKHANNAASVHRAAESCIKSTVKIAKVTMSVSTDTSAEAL

mice [2] = experiment: Hot plate, 52 °C; assay type: in vivo, mouse; conditions: for Jump / Paw lick / Paw shake / Paw withdrawal: individual animals, FigS11b
[3] = target: panel of 320 non-olfactory GPCRs (Homo sapiens, UniProt Q14439); assay type: cell-based
Chain of panel of 320 non-olfactory GPCRs (Homo sapiens, UniProt Q14439) (Q14439 whole entry): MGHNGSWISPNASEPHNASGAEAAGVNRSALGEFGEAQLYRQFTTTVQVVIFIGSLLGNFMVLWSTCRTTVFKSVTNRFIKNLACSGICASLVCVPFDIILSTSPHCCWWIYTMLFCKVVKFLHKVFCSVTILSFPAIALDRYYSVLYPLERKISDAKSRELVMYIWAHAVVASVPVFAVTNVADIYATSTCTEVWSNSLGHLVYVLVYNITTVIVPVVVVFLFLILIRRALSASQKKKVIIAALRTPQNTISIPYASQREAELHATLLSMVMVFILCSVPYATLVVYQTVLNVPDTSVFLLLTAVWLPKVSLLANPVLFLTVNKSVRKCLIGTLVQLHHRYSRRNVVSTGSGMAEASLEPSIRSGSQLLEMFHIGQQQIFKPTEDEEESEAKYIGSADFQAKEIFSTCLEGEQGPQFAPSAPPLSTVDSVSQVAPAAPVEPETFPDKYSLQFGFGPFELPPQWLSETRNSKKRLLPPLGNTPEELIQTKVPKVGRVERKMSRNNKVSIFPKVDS

[4] = target: panel of 320 non-olfactory GPCRs (Homo sapiens, UniProt Q9NYM4); assay type: cell-based
Chain of panel of 320 non-olfactory GPCRs (Homo sapiens, UniProt Q9NYM4) (Q9NYM4 17-423): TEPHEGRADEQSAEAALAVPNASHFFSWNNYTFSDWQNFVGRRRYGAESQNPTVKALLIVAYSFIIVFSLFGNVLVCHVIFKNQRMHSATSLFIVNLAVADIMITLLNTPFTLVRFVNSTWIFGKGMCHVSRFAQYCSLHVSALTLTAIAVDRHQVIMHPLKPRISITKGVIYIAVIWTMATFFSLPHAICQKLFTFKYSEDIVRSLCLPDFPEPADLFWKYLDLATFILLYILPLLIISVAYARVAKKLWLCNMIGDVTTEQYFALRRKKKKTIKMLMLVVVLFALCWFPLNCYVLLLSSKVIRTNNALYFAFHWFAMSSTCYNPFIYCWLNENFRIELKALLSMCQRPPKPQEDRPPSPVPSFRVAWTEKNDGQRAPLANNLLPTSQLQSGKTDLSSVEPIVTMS

[5] = target: panel of 320 non-olfactory GPCRs (Homo sapiens, UniProt P35368); assay type: cell-based
Chain of panel of 320 non-olfactory GPCRs (Homo sapiens, UniProt P35368) (P35368 whole entry): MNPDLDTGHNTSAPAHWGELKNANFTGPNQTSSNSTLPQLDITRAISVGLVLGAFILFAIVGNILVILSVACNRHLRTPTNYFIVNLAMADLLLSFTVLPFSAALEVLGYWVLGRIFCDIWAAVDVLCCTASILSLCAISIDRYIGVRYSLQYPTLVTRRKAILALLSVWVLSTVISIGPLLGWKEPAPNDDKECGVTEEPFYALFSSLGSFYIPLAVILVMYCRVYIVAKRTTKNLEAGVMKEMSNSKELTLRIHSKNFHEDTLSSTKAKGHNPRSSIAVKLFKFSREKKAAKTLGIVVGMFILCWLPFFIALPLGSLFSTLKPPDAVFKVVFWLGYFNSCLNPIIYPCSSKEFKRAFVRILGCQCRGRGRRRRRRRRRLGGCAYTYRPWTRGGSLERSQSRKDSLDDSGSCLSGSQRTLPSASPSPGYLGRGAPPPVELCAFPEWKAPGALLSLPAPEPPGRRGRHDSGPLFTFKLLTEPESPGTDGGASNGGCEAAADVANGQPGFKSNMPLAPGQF

[6] = Pharmacokinetics: plasma, brain, CSF
[7] = male, CD-1, mouse, CSF, intraperitoneal, 0.2 mg/kg

SMILES: COC(=O)[C@@](C)(NC(=O)c1cc(C)n(-c2cccc(C(F)(F)F)c2)n1)c1cccs1 [‘1350]
- radioligand binding, competition curve point (normalized) (hCB2; M = -6.64345): 1.586 and -0.1332
- radioligand binding, competition curve point (normalized) (hCB2; M = -7.35666): 2.208 and 1.359
- radioligand binding, competition curve point (normalized) (hCB2; M = -8.06987): 13.0908 and 10.365
- radioligand binding, competition curve point (normalized) (hCB2; M = -8.78308): 37.5933 and 37.49
- radioligand binding, competition curve point (normalized) (hCB2; M = -9.49629): 71.1443 and 45.0839
- radioligand binding, competition curve point (normalized) (hCB2; M = -10.2095): 95.3669 and 77.3781
- radioligand binding, competition curve point (normalized) (hCB2; M = -10.9227): 103.545 and 89.3952
- radioligand binding, competition curve point (normalized) (hCB2; M = -11.6359): 105.504 and 103.118
- tail flick latency on cotreatment with morphine (mice [1]; 0.05 and 0.1 mg/kg plus morphine 3.0 mg/kg i.p.): significantly longer tail-flick latencies than did mice injected with morphine alone
- effect of CB1R knockout on analgesia, tail flick (mice [1]; CB1R KO mice): completely blocked the analgesic effect
- analgesic response normalised to baseline, WT vs CB1R KO (Figure5d), individual animals (mice [1]; CB1R KO mice): 106.345 and 98.767 and 101.721 and 166.196 and 107.501
- Response relative to Baseline, individual animals (FigS11c) (mice [1]; CB2R KO mice): 164.985 and 191.573 and 174.006 and 295.549 and 230.504 and 308.843 and 149.555 and 202.493 and 243.323 and 186.825
- tail flick response normalised to baseline (Figure4a), individual animals (mice [1]; Dose 0.05 mg/kg): 119.013 and 100.323 and 160.799 and 150.926 and 127.123
- tail flick response normalised to baseline (Figure4a), individual animals (mice [1]; Dose 0.1 mg/kg): 155.51 and 183.368 and 185.307 and 158.155 and 125.713
- tail flick response normalised to baseline (Figure4a), individual animals (mice [1]; Dose 0.2 mg/kg): 215.281 and 170.849 and 208.757 and 269.409 and 238.025
- tail flick response normalised to baseline (Figure4a), individual animals (mice [1]; Dose 0.5 mg/kg): 229.386 and 270.644 and 271.701 and 225.86 and 268.175
- analgesic response normalised to baseline, WT vs CB1R KO (Figure5d), individual animals (mice [1]; WT mice): 175.053 and 136.358 and 121.523 and 181.234 and 162.69 and 195.08 and 109.284 and 151.687 and 140.809 and 142.663
- Response relative to Baseline, individual animals (FigS11c) (mice [1]; WT mice): 303.35 and 281.096 and 250.176 and 198.641 and 149.684 and 198.173 and 421.644 and 117.592 and 166.55 and 75.1933
- lowest dose with significantly increased tail flick latency (mice [1]; i.p., 30 min after injection): 0.1 mg/kg
- Ki (hCB1): 0.32 nM
- radioligand binding, competition curve point (normalized) (hCB1; M = -6.64345, replicate columns): 11.7845 and 1.336
- radioligand binding, competition curve point (normalized) (hCB1; M = -7.35666, replicate columns): 11.2233 and 0.827
- radioligand binding, competition curve point (normalized) (hCB1; M = -8.06987, replicate columns): 12.4018 and 13.4224
- radioligand binding, competition curve point (normalized) (hCB1; M = -8.78308, replicate columns): 40.0112 and 26.5903
- radioligand binding, competition curve point (normalized) (hCB1; M = -9.49629, replicate columns): 69.0236 and 54.2939
- radioligand binding, competition curve point (normalized) (hCB1; M = -10.2095, replicate columns): 97.7273 and 72.2328
- radioligand binding, competition curve point (normalized) (hCB1; M = -11.9245, replicate columns): 99.9439 and 88.4224
- radioligand binding, competition curve point (normalized) (hCB1; M = -13.6383, replicate columns): 102.525 and 91.0941
- Jump (mice [2]; 0.05 mg/kg): 0 (4×) and 2
- Paw lick (mice [2]; 0.05 mg/kg): 0 (3×) and 2 and 12
- Paw shake (mice [2]; 0.05 mg/kg): 20 and 22 and 48 and 24 and 12
- Paw withdrawal (mice [2]; 0.05 mg/kg): 28 and 42 and 47 and 50 and 14
- Jump (mice [2]; 0.1 mg/kg): 0
- Paw lick (mice [2]; 0.1 mg/kg): 2 and 0 (3×) and 8
- Paw shake (mice [2]; 0.1 mg/kg): 16 and 18 and 6 and 22 and 4
- Paw withdrawal (mice [2]; 0.1 mg/kg): 20 and 30 and 22 and 34 and 14
- Jump (mice [2]; 0.2 mg/kg): 8 and 0 and 34 and 14 (2×)
- Paw lick (mice [2]; 0.2 mg/kg): 0
- Paw shake (mice [2]; 0.2 mg/kg): 2 (2×) and 4 and 0 (2×)
- Paw withdrawal (mice [2]; 0.2 mg/kg): 16 and 22 and 18 (2×) and 12
- effect of CB2R knockout on analgesia, hot plate (mice [2]; CB2R KO mice): did not decrease the analgesic effects
- hot plate response normalised to baseline (Figure4b), individual animals (mice [2]; Dose 0.05 mg/kg): 62.7 and 108.4 and 141.6 and 81.1 and 84.7 and 79 and 84.5 and 85.4 and 86.2 and 81.8
- hot plate response normalised to baseline (Figure4b), individual animals (mice [2]; Dose 0.1 mg/kg): 100.2 and 152.6 and 103.1 and 113.3 and 127.2 and 80.8 and 109.9 and 151.2 and 138.2 and 159.1
- hot plate response normalised to baseline (Figure4b), individual animals (mice [2]; Dose 0.2 mg/kg): 191.789 and 117.988 and 110.937 and 200.407 and 123.942
- hot plate response normalised to baseline (Figure4b), individual animals (mice [2]; Dose 0.5 mg/kg): 244.124 and 212.316 and 122.062 and 249.608 and 217.8
- lowest dose with significantly increased hot plate latency (mice [2]; i.p., 30 min after injection): 0.1 mg/kg
- Fold of Basal RLU [3]: 0.7 and 0.8 and 1 and 0.9
- Fold of Basal RLU [4]: 1.2 fold and 1 fold and 0.8 fold
- Fold of Basal RLU [5]: 1 fold and 0.8 fold and 0.6 fold and 0.9 fold
- brain AUC0→inf ([6]; 0.2 mg/kg i.p., CD-1 mice): 8180 ng·min/mL
- brain Cmax ([6]; 0.2 mg/kg i.p., CD-1 mice): 44.1 ng/g
- level in CSF ([6]; 0.2 mg/kg i.p., CD-1 mice): but not CSF compartments; also recorded: below the quantification limit
- concentration at 1 min [6, 7]: 0 ng/mL
- concentration at 5 min [6, 7]: 1.2 ng/mL
- concentration at 15 min [6, 7]: 0 ng/mL
